Molecules are shown by their SMILES.

19 compounds from the OPERA property sets (Mansouri et al. 2018) can be followed below.

On to `Clc1cc2oc3cc(Cl)c(Cl)cc3c2cc1Cl`, for which the logP was 6.53.

The compound `Clc1cc2oc3c(Cl)c(Cl)c(Cl)cc3c2cc1Cl` yielded a logP of 6.92.

Turning to `Clc1c(Cl)c(Cl)c2c(oc3ccccc32)c1Cl`, the lipophilicity (logP) was found to be 6.17.

Regarding `Clc1cc(Cl)c2oc3c(Cl)c(Cl)c(Cl)cc3c2c1`, the logP was found to be 6.59.

As to `Clc1cc(Cl)c2c(oc3ccc(Cl)c(Cl)c32)c1Cl`, the lipophilicity (logP) came out at 6.51.

Turning to `Clc1cc2c(oc3c(Cl)cccc32)c(Cl)c1Cl`, the lipophilicity (logP) was 6.11.

`Clc1cc(Cl)c2c(c1)oc1c(Cl)cc(Cl)cc12` came in with a lipophilicity (logP) of 6.37.

In turn, `Clc1cc(Cl)c2oc3c(Cl)c(Cl)ccc3c2c1` displayed a logP of 6.25.

Regarding `Clc1cc2oc3cc(Cl)c(Cl)c(Cl)c3c2cc1Cl`, the logP came out at 6.79.

The compound `Clc1cc2oc3ccc(Cl)c(Cl)c3c2cc1Cl` gave a logP of 6.23.

On to `Clc1cc2oc3c(Cl)c(Cl)ccc3c2cc1Cl`, for which the logP stood at 6.31.

For `Clc1cc(Cl)c2oc3cc(Cl)c(Cl)cc3c2c1`, the logP amounted to 6.73.

For `Clc1ccc2c(c1)oc1c(Cl)c(Cl)cc(Cl)c12`, the logP worked out at 6.23.

Regarding `Clc1cc(Cl)c2oc3c(Cl)ccc(Cl)c3c2c1Cl`, the logP worked out at 6.59.

As for `Clc1cc(Cl)c2c(c1)oc1cc(Cl)cc(Cl)c12`, the logP amounted to 6.34.

Take `Clc1cc(Cl)c2oc3c(Cl)c(Cl)cc(Cl)c3c2c1`: the logP came out at 6.24.

`Clc1ccc2oc3c(Cl)c(Cl)c(Cl)c(Cl)c3c2c1` registered a logP of 6.79.

`Clc1cc(Cl)c2c(oc3c(Cl)cccc32)c1Cl` came in with a logP of 6.31.

The compound `Clc1cc2c(oc3c(Cl)c(Cl)c(Cl)c(Cl)c32)c(Cl)c1Cl` had a log partition coefficient (logP) of 7.92.

As usually defined, the logP is the decadic logarithm of the partition coefficient of the neutral form, usually between octanol and water. A higher logP goes with higher lipophilicity.
